The subject of series [1] is Klebsiella pneumoniae SSI3010. To be noted: SSI3010. Summed up: (§1)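 Standardized inocula (0.5 McFarland in saline, then diluted in MHII broth to approximately 5×10^5 CFU/mL) were exposed to two-fold dilution series of each peptide in the presence of polysorbate 80 (0.002% final).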
For series [2], the system named is Escherichia coli ATCC 25922. The conditions noted are these: ATCC 25922. In outline:
as §1

The test system of series [3] is Escherichia coli MCR-1 Af 45. To be noted: MCR-1 Af 45. In outline: as §1
Series [4] deals with human red blood cells (hRBC). The experiment in a line: Hemolysis of human red blood cells. Type of series: cell-based. To be noted: red cells of human, 1 h. In outline:
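Percent hemolysis is OD540 of peptide-treated supernatant relative to water-lysed cells. Each peptide was tested at 200 μg/mL against 20% (v/v) washed human erythrocytes. Incubation was 1 h at 37 °C, 300 rpm.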

Peptide text beside a SMILES is read from it. Where only a bound is given, the exact number is not on record here.

`CC[C@H](C)[C@H](NC(=O)[C@@H]1C[C@@H](O)CN1C(=O)[C@@H](NC(=O)[C@@H]1CCCN1C(=O)[C@H](CCCCN)NC(=O)[C@@H](N)CCCCN)C(C)C)C(=O)N[C@H](C(=O)N[C@@H](Cc1ccc(O)cc1)C(=O)N[C@@H]1C(=O)N[C@@H](CC(N)=O)C(=O)N[C@@H](CCCNC(=N)N)C(=O)N[C@@H](CCN)C(=O)N[C@@H]([C@@H](C)O)C(=O)N[C@H](CCN)C(=O)N[C@@H](CCCCN)C(=O)N[C@H](C(=O)N[C@@H](CCN)C(=O)N[C@@H](CCCNC(=N)N)C(=O)N[C@@H](Cc2ccc(O)cc2)C(=O)O)CSSC1(C)C)[C@@H](C)O` [Example 118, Lys-Lys-Pro-Val-Hyp-Ile-Thr-Tyr-Pen-Asn-Arg-Dab-Thr-^DDab-Lys-Cys-Dab-Arg-Tyr] (HELM PEPTIDE1{K.K.P.V.[Hyp].I.T.Y.[Pen].N.R.[Dab].T.[NCC[C@@H](N[*:1])C(=O)[*:2]].K.C.[Dab].R.Y}$PEPTIDE1,PEPTIDE1,9:R3-16:R3$$$V2.0): in series [1], the “Klebsiella pneumoniae SSI3010 MIC” value is 0.125 µg/mL. Further, the “Escherichia coli ATCC 25922 MIC” value in series [2] was 0.0625 µg/mL. The “Escherichia coli MCR-1 Af 45 MIC” value in series [3] was 0.0625 µg/mL. In addition, the “Hemolysis at 0.2 g/L” value in series [4] is on record as 0%.

In the case of `CC[C@H](C)[C@H](NC(=O)[C@@H]1C[C@@H](O)CN1C(=O)[C@@H](NC(=O)[C@@H]1CCCN1C(=O)[C@H](CCCCN)NC(=O)[C@@H](N)CCCCN)C(C)C)C(=O)N[C@H](C(=O)N[C@@H](Cc1ccc(O)cc1)C(=O)N[C@H]1CSSC[C@@H](C(=O)N[C@@H](CCN)C(=O)N[C@@H](CCCNC(=N)N)C(=O)N[C@@H](Cc2ccc(O)cc2)C(=O)O)NC(=O)[C@H](CCCCN)NC(=O)[C@@H](CCN)NC(=O)[C@H]([C@@H](C)O)NC(=O)[C@H](CCN)NC(=O)[C@H](CCCNC(=N)N)NC(=O)[C@H](CC(N)=O)NC1=O)[C@@H](C)O` [Example 119, Lys-Lys-Pro-Val-Hyp-Ile-Thr-Tyr-Cys-Asn-Arg-Dab-Thr-^DDab-Lys-Cys-Dab-Arg-Tyr] (HELM PEPTIDE1{K.K.P.V.[Hyp].I.T.Y.C.N.R.[Dab].T.[NCC[C@@H](N[*:1])C(=O)[*:2]].K.C.[Dab].R.Y}$PEPTIDE1,PEPTIDE1,9:R3-16:R3$$$V2.0), the “Klebsiella pneumoniae SSI3010 MIC” value in series [1] was 0.0625 µg/mL. For the same molecule, in series [2], the “Escherichia coli ATCC 25922 MIC” value stood at 0.03125 µg/mL. Besides, the “Escherichia coli MCR-1 Af 45 MIC” value in series [3] was 0.03125 µg/mL. For the same molecule, the “Hemolysis at 0.2 g/L” value in series [4] stood at 1%.

For the molecule `CC[C@H](C)[C@H](NC(=O)[C@@H]1C[C@@H](O)CN1C(=O)[C@@H](NC(=O)[C@@H]1C[C@@H](O)CN1C(=O)[C@H](CCCCN)NC(=O)[C@@H](N)CCCCN)C(C)C)C(=O)N[C@H](C(=O)N[C@@H](Cc1ccc(O)cc1)C(=O)N[C@@H]1C(=O)N[C@@H](CC(N)=O)C(=O)N[C@@H](CCCNC(=N)N)C(=O)N[C@@H](CCN)C(=O)N[C@@H]([C@@H](C)O)C(=O)N[C@H](CCN)C(=O)N[C@@H](CCCCN)C(=O)N[C@H](C(=O)N[C@@H](CCN)C(=O)N[C@@H](CCCNC(=N)N)C(=O)N[C@@H](Cc2ccc(O)cc2)C(=O)O)CSSC1(C)C)[C@@H](C)O` [Example 120, Lys-Lys-Hyp-Val-Hyp-Ile-Thr-Tyr-Pen-Asn-Arg-Dab-Thr-^DDab-Lys-Cys-Dab-Arg-Tyr] (HELM PEPTIDE1{K.K.[Hyp].V.[Hyp].I.T.Y.[Pen].N.R.[Dab].T.[NCC[C@@H](N[*:1])C(=O)[*:2]].K.C.[Dab].R.Y}$PEPTIDE1,PEPTIDE1,9:R3-16:R3$$$V2.0), the “Klebsiella pneumoniae SSI3010 MIC” value in series [1] was 0.125 µg/mL. In addition, the “Escherichia coli ATCC 25922 MIC” value in series [2] turned out to be 0.0625 µg/mL. The “Escherichia coli MCR-1 Af 45 MIC” value in series [3] worked out at 0.125 µg/mL. Further, in series [4], the “Hemolysis at 0.2 g/L” value amounted to 0%.

In the case of `CC[C@H](C)[C@H](NC(=O)[C@@H]1C[C@@H](O)CN1C(=O)[C@@H](NC(=O)[C@@H]1C[C@@H](O)CN1C(=O)[C@H](CCCCN)NC(=O)[C@@H](N)CCCCN)C(C)C)C(=O)N[C@H](C(=O)N[C@@H](Cc1ccc(O)cc1)C(=O)N[C@H]1CSSC[C@@H](C(=O)N[C@@H](CCN)C(=O)N[C@@H](CCCNC(=N)N)C(=O)N[C@@H](Cc2ccc(O)cc2)C(=O)O)NC(=O)[C@H](CCCCN)NC(=O)[C@@H](CCN)NC(=O)[C@H]([C@@H](C)O)NC(=O)[C@H](CCN)NC(=O)[C@H](CCCNC(=N)N)NC(=O)[C@H](CC(N)=O)NC1=O)[C@@H](C)O` [Example 121, Lys-Lys-Hyp-Val-Hyp-Ile-Thr-Tyr-Cys-Asn-Arg-Dab-Thr-^DDab-Lys-Cys-Dab-Arg-Tyr] (HELM PEPTIDE1{K.K.[Hyp].V.[Hyp].I.T.Y.C.N.R.[Dab].T.[NCC[C@@H](N[*:1])C(=O)[*:2]].K.C.[Dab].R.Y}$PEPTIDE1,PEPTIDE1,9:R3-16:R3$$$V2.0), the “Klebsiella pneumoniae SSI3010 MIC” value in series [1] is 0.125 µg/mL. For the same molecule, in series [2], the “Escherichia coli ATCC 25922 MIC” value was found to be 0.03125 µg/mL. Also, the “Escherichia coli MCR-1 Af 45 MIC” value in series [3] was determined as 0.0625 µg/mL. For the same molecule, the “Hemolysis at 0.2 g/L” value in series [4] came to 0%.

Take `CC[C@H](C)[C@H](NC(=O)[C@@H]1C[C@@H](O)CN1C(=O)[C@@H](NC(=O)[C@@H]1C[C@@H](O)CN1C(=O)[C@H](CCCCN)NC(=O)[C@@H](N)CCCCN)C(C)C)C(=O)N[C@H](C(=O)N[C@@H](Cc1ccc(O)cc1)C(=O)N[C@@H]1C(=O)N[C@@H](Cc2c[nH]cn2)C(=O)N[C@@H](CCCNC(=N)N)C(=O)N[C@@H](CCN)C(=O)N[C@@H]([C@@H](C)O)C(=O)N[C@H](CCN)C(=O)N[C@@H](CCCCN)C(=O)N[C@H](C(=O)N[C@@H](CCN)C(=O)N[C@@H](CCCNC(=N)N)C(=O)N[C@@H](Cc2ccc(O)cc2)C(=O)O)CSSC1(C)C)[C@@H](C)O` [Example 122, Lys-Lys-Hyp-Val-Hyp-Ile-Thr-Tyr-Pen-His-Arg-Dab-Thr-^DDab-Lys-Cys-Dab-Arg-Tyr] (HELM PEPTIDE1{K.K.[Hyp].V.[Hyp].I.T.Y.[Pen].H.R.[Dab].T.[NCC[C@@H](N[*:1])C(=O)[*:2]].K.C.[Dab].R.Y}$PEPTIDE1,PEPTIDE1,9:R3-16:R3$$$V2.0): the “Klebsiella pneumoniae SSI3010 MIC” value in series [1] was 0.125 µg/mL. For the same molecule, the “Escherichia coli ATCC 25922 MIC” value in series [2] was 0.0625 µg/mL. Also, the “Escherichia coli MCR-1 Af 45 MIC” value in series [3] worked out at 0.125 µg/mL. For the same molecule, the “Hemolysis at 0.2 g/L” value in series [4] is given as 0%.

Turning to `CC[C@H](C)[C@H](NC(=O)[C@@H]1C[C@@H](O)CN1C(=O)[C@@H](NC(=O)[C@@H]1C[C@@H](O)CN1C(=O)[C@H](CCCCN)NC(=O)[C@@H](N)CCCCN)C(C)C)C(=O)N[C@H](C(=O)N[C@@H](Cc1ccc(O)cc1)C(=O)N[C@@H]1C(=O)N[C@@H](CC(N)=O)C(=O)N[C@@H](CCCNC(=N)N)C(=O)N[C@@H](CCN)C(=O)N[C@@H]([C@@H](C)O)C(=O)N[C@H](CCN)C(=O)N[C@@H](CCCCN)C(=O)N[C@H](C(=O)N[C@@H](CO)C(=O)N[C@@H](CCCNC(=N)N)C(=O)N[C@@H](Cc2ccc(O)cc2)C(=O)O)CSSC1(C)C)[C@@H](C)O` [Example 123, Lys-Lys-Hyp-Val-Hyp-Ile-Thr-Tyr-Pen-Asn-Arg-Dab-Thr-^DDab-Lys-Cys-Ser-Arg-Tyr] (HELM PEPTIDE1{K.K.[Hyp].V.[Hyp].I.T.Y.[Pen].N.R.[Dab].T.[NCC[C@@H](N[*:1])C(=O)[*:2]].K.C.S.R.Y}$PEPTIDE1,PEPTIDE1,9:R3-16:R3$$$V2.0), in series [1], the “Klebsiella pneumoniae SSI3010 MIC” value worked out at 0.25 µg/mL. Also, the “Escherichia coli ATCC 25922 MIC” value in series [2] stood at 0.125 µg/mL. Further, the “Escherichia coli MCR-1 Af 45 MIC” value in series [3] was found to be 0.0625 µg/mL. For the same molecule, the “Hemolysis at 0.2 g/L” value in series [4] is 0%.

As for `CC[C@H](C)[C@H](NC(=O)[C@@H]1C[C@@H](O)CN1C(=O)[C@@H](NC(=O)[C@@H]1C[C@@H](O)CN1C(=O)[C@H](CCCCN)NC(=O)[C@@H](N)CCCCN)C(C)C)C(=O)N[C@H](C(=O)N[C@@H](Cc1ccc(O)cc1)C(=O)N[C@@H]1C(=O)N[C@@H](CC(N)=O)C(=O)N[C@@H](CCCNC(=N)N)C(=O)N[C@@H](CCN)C(=O)N[C@@H]([C@@H](C)O)C(=O)N[C@H](CCN)C(=O)N[C@@H](CCCCN)C(=O)N[C@H](C(=O)N[C@@H](CCN)C(=O)N[C@@H](CCCN)C(=O)N[C@@H](Cc2ccc(O)cc2)C(=O)O)CSSC1(C)C)[C@@H](C)O` [Example 124, Lys-Lys-Hyp-Val-Hyp-Ile-Thr-Tyr-Pen-Asn-Arg-Dab-Thr-^DDab-Lys-Cys-Dab-Orn-Tyr] (HELM PEPTIDE1{K.K.[Hyp].V.[Hyp].I.T.Y.[Pen].N.R.[Dab].T.[NCC[C@@H](N[*:1])C(=O)[*:2]].K.C.[Dab].[Orn].Y}$PEPTIDE1,PEPTIDE1,9:R3-16:R3$$$V2.0; N-terminus and C-terminus assumed), the “Klebsiella pneumoniae SSI3010 MIC” value in series [1] was found to be 0.25 µg/mL. In addition, the “Escherichia coli ATCC 25922 MIC” value in series [2] turned out to be 0.125 µg/mL. Besides, in series [3], the “Escherichia coli MCR-1 Af 45 MIC” value was determined as 0.0625 µg/mL. The “Hemolysis at 0.2 g/L” value in series [4] is given as 0%.

As for `CC[C@H](C)[C@H](NC(=O)[C@@H]1C[C@@H](N)CN1C(=O)[C@@H](NC(=O)[C@@H]1C[C@@H](O)CN1C(=O)[C@H](CCCCN)NC(=O)[C@@H](N)CCCCN)C(C)C)C(=O)N[C@H](C(=O)N[C@@H](Cc1ccc(O)cc1)C(=O)N[C@@H]1C(=O)N[C@@H](CC(N)=O)C(=O)N[C@@H](CCCNC(=N)N)C(=O)N[C@@H](CCN)C(=O)N[C@@H]([C@@H](C)O)C(=O)N[C@H](CCN)C(=O)N[C@@H](CCCCN)C(=O)N[C@H](C(=O)N[C@@H](CCN)C(=O)N[C@@H](CCCNC(=N)N)C(=O)N[C@@H](Cc2ccc(O)cc2)C(=O)O)CSSC1(C)C)[C@@H](C)O` [Example 125, Lys-Lys-Hyp-Val-Pro((4R)NH2)-Ile-Thr-Tyr-Pen-Asn-Arg-Dab-Thr-^DDab-Lys-Cys-Dab-Arg-Tyr] (HELM PEPTIDE1{K.K.[Hyp].V.[N[C@@H]1C[C@@H](C(=O)[*:2])N([*:1])C1].I.T.Y.[Pen].N.R.[Dab].T.[NCC[C@@H](N[*:1])C(=O)[*:2]].K.C.[Dab].R.Y}$PEPTIDE1,PEPTIDE1,9:R3-16:R3$$$V2.0), the “Klebsiella pneumoniae SSI3010 MIC” value in series [1] worked out at 0.0625 µg/mL. Besides, the “Escherichia coli ATCC 25922 MIC” value in series [2] was not above 0.03125 µg/mL. In series [3], the “Escherichia coli MCR-1 Af 45 MIC” value was 0.0625 µg/mL. Also, the “Hemolysis at 0.2 g/L” value in series [4] worked out at 0%.
